Reference: patent publication US20060204596A1, “Formulation of a mixture of Free-B-Ring flavonoids and flavans as a therapeutic agent” (Unigen Pharmaceuticals, Inc., priority 2005, published 2006)
Where two headings read alike, the source gives them in different places. Marks after values point to notes of the source that are not given here.

Key:
[1] = molecular target: T1, COX-2 (Homo sapiens, UniProt P35354); assay: COX-2 enzymatic inhibition; format: biochemical
T1 sequence (P35354 18-604): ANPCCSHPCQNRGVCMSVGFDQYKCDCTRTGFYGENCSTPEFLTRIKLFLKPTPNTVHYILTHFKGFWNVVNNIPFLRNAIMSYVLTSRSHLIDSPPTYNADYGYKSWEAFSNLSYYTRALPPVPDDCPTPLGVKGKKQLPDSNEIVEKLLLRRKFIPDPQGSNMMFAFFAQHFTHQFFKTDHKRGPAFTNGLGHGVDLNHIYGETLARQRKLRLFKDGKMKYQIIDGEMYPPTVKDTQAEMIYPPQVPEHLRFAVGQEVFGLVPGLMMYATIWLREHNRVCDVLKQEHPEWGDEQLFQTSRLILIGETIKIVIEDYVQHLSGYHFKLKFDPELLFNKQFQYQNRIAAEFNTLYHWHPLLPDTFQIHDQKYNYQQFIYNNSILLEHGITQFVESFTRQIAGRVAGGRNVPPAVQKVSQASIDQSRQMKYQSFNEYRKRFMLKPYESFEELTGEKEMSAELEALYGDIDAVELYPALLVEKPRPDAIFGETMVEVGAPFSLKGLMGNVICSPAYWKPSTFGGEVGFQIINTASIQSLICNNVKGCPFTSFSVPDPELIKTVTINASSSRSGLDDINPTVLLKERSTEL
Text: (§1) UP736 is a natural product derived from two traditional plants that contain antioxidants and other naturally occurring dietary compounds that aid the body in multiple ways.

[2] = system: arachidonic acid induced platelet aggregation; assay: platelet aggregation assay in platelet rich plasma; format: cell-based, New Zealand Rabbits; conditions: UP736 0
Protocol: UP736, aspirin or combinations thereof were dissolved in 0.3% DMSO and incubated with the plasma at 37° C. for 5 minutes. Agonist or antagonist effect of the compounds was quantified by optical density of aggregation. Significance criteria used for agonist effect is that >50% platelet aggregation relative to arachidonic acid response. […] In this assay, various concentrations of UP736 (10, 2 and 0.2 μM) and aspirin (30 and 3 μM) were tested individually as either agonist or antagonist of platelet aggregation in platelet rich rabbit plasma. […] In another assay (Test# 2) performed under the same experimental conditions, mixtures of UP736 at lower concentrations (0.2, 0.067, 0.022 and 0.007 μM) and aspirin at a concentration of 3 μM were tested.

[3] = system: bleeding time; assay: bleeding time assay (Test #3, #4); format: in vivo, ICR male mice
Protocol: The bleeding time assay was conducted according to the method described by […] and Kling (1997) Thrombosis Research 10:619-622) and Butler et al. (1982) Thromb Haemostas 47:46-49. Test articles were administered to five ICR male mice one hour before standardized transection of the tip (1.0 mm) of each tail. The mice restrained in holders were immediately suspended vertically with the tail tips immersed in a test tube containing saline at 37° C. There was no maximum cut-off time set. The measurements started as actual bleeding was observed and stopped as bleeding ceased for 15 seconds or longer at any time. Data were analyzed using the Student's t-test. In one assay (Test #3), aspirin alone at 3, 10, 65 and 100 mg/kg or UP736 at a dose of 100 mg/kg, alone or in combination with aspirin at 3, 10 and 65 mg/kg was administered orally to groups of 5 ICR male mice. […] The assay was repeated under the same experimental conditions (Test # 4).

[4] = system: bleeding time; parameters: species or system ICR derived male mice; conditions: male, ICR, mouse, in vivo, po, 1 h
Protocol: To verify the bleeding time results, UP736 or UP736 in combination with aspirin was tested again in an independent study (Test #5) using a modified procedure carried out. UP736 was administered orally at a dose of 100 mg/kg, alone or in combination with aspirin at 3, 10 and 30 mg/kg to groups of 5 ICR derived male mice, weighing 22±2 g, 1 hour before transection of the tip (0.3 mm) of each tail. In addition, aspirin alone at 3, 10, 30 and 100 mg/kg was similarly given to mice. The mice, in holders, were immediately suspended vertically with the distal 2 cm of each tail immersed in a test tube containing saline at 37° C. A maximum cut-off time of 180 seconds was set. If bleeding ceased for 15 seconds or longer at any time during the 180 seconds observation period, the measurements were discontinued and any subsequent bleeding would not be considered. Prolongation of bleeding time by 50 percent or more (50%) relative to a control group of animals was considered significant. The results are consistent with those obtained from the above-described experiments (Test #3 and # 4).

[5] = molecular target: T2, COX-1 (Homo sapiens, UniProt P23219); conditions: cited from earlier work
T2 sequence (P23219 24-599): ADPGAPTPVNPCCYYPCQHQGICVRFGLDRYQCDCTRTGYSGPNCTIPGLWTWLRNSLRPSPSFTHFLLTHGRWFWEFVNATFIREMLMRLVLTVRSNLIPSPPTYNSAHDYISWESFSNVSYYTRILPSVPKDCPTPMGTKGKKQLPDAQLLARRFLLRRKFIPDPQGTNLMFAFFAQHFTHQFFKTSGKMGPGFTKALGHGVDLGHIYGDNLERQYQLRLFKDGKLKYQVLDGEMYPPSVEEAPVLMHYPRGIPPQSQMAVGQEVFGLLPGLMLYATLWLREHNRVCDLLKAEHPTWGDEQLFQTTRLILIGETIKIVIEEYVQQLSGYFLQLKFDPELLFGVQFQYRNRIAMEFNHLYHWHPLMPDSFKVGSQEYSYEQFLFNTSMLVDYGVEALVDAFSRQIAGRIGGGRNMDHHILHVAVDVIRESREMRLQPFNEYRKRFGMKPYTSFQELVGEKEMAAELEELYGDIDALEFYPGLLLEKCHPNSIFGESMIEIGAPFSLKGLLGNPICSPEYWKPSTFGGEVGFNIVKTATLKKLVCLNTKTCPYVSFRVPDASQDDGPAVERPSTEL

[6] = molecular target: T2, COX-1; assay: COX-1 enzymatic inhibition; format: biochemical
Text: as §1

[7] = Oxygen Radical Absorption Capacity (ORAC)
Text: […]. However, it can be preserved by a number of preservatives, including but not limited to stannous chloride (SnCl2), sodium bisulfate/metabisulfite (SBS), and other preservatives.

[8] = Test #3 (n = 5), 3 mg/kg orally
[9] = Test #3 (n = 5), 10 mg/kg orally
[10] = Test #3 (n = 5), 65 mg/kg orally
[11] = Test #3 (n = 5), 100 mg/kg orally
[12] = Test #3 and #4 combined (n = 9-10), 3 mg/kg orally
[13] = Test #3 and #4 combined (n = 9-10), 10 mg/kg orally
[14] = Test #3 and #4 combined (n = 9-10), 65 mg/kg orally
[15] = Test #3 and #4 combined (n = 9-10), 100 mg/kg orally
[16] = Test #4 (n = 5), 3 mg/kg orally
[17] = Test #4 (n = 5), 10 mg/kg orally
[18] = Test #4 (n = 5), 65 mg/kg orally
[19] = Test #4 (n = 5), 100 mg/kg orally

With `CC(=O)Oc1ccccc1C(=O)O` [Aspirin] the “COX-2 Selectivity Relative COX-1” value [1] was 0.006, the “Agonist Effect” value ([2]; Test #1, aspirin 3.0 μM) was 0% and the “Antagonist Effect” value ([2]; Test #1, aspirin 3.0 μM) was 1%. For the same compound, the “Agonist Effect” value ([2]; Test #1, aspirin 30.0 μM) was 0%, the “Antagonist Effect” value ([2]; Test #1, aspirin 30.0 μM) was 100% and the “Agonist Effect” value ([2]; Test #2, aspirin 3.0 μM) was 0%. The “Antagonist Effect” value ([2]; Test #2, aspirin 3.0 μM) was 8%, the “% Change Relative to Vehicle Group” value [3, 8] was 18.7 ↑ % and the “Average Bleeding Time ± SD” value [3, 8] was 77.2 ± 13.0 s. The “% Change Relative to Vehicle Group” value [3, 9] was 14.5 ↑ %, the “Average Bleeding Time ± SD” value [3, 9] was 74.4 ± 15.4 s and the “% Change Relative to Vehicle Group” value [3, 10] was 61.5* ↑ %. The “Average Bleeding Time ± SD” value [3, 10] was 105 ± 15.1 s, the “% Change Relative to Vehicle Group” value [3, 11] was 83* ↑ % and the “Average Bleeding Time ± SD” value [3, 11] was 119 ± 14.0 s. The “% Change Relative to Vehicle Group” value [3, 12] was 21.7 ↑ %, the “Average Bleeding Time ± SD” value [3, 12] was 83.3 ± 12.6 s and the “% Change Relative to Vehicle Group” value [3, 13] was 15.6 ↑ %. For the same compound, the “Average Bleeding Time ± SD” value [3, 13] was 79.5 ± 13.1 s, the “% Change Relative to Vehicle Group” value [3, 14] was 46.1 ↑ % and the “Average Bleeding Time ± SD” value [3, 14] was 100.5 ± 11.9 s. For the same compound, the “% Change Relative to Vehicle Group” value [3, 15] was 78.2 ↑ %, the “Average Bleeding Time ± SD” value [3, 15] was 122.6 ± 13.9 s and the “% Change Relative to Vehicle Group” value [3, 16] was 23.1 ↑ %. For the same compound, the “Average Bleeding Time ± SD” value [3, 16] was 89.4 ± 9.7 s, the “% Change Relative to Vehicle Group” value [3, 17] was 16.5 ↑ % and the “Average Bleeding Time ± SD” value [3, 17] was 84.6 ± 9.0 s. The “% Change Relative to Vehicle Group” value [3, 18] was 32.2* ↑ %, the “Average Bleeding Time ± SD” value [3, 18] was 96 ± 6.4 s and the “% Change Relative to Vehicle Group” value [3, 19] was 73.8* ↑ %. The “Average Bleeding Time ± SD” value [3, 19] was 126.2 ± 14.3 s, the “% Change Relative to Vehicle Group” value ([4]; 3 mg/kg) was 0% and the “Average Bleeding Time ± SD” value ([4]; 3 mg/kg) was 42.8 ± 26.2 s. For the same compound, the “% Change Relative to Vehicle Group” value ([4]; 10 mg/kg) was 0%, the “Average Bleeding Time ± SD” value ([4]; 10 mg/kg) was 39.8 ± 22.4 s and the “% Change Relative to Vehicle Group” value ([4]; 30 mg/kg) was 27 ↑ %. For the same compound, the “Average Bleeding Time ± SD” value ([4]; 30 mg/kg) was 56.4 ± 27.3 s, the “% Change Relative to Vehicle Group” value ([4]; 100 mg/kg) was 70* ↑ % and the “Average Bleeding Time ± SD” value ([4]; 100 mg/kg) was 75.0 ± 38.8 s. The “selective against COX-1” value [5] was “more than 150 times”.

For `CC1(C)Cc2c(-c3ccccc3)c(-c3ccc(Cl)cc3)c(CC(=O)O)n2C1` [Licofelone], the “COX-2 Selectivity Relative COX-1” value [1] was 1.

With `CS(=O)(=O)c1ccc(C2=C(c3ccccc3)C(=O)OC2)cc1` [Rofecoxib] the “COX-2 Selectivity Relative COX-1” value [1] was 250.

For `O=C(O)[C@H]1O[C@@H](Oc2cc3oc(-c4ccccc4)cc(=O)c3c(O)c2O)[C@H](O)[C@@H](O)[C@@H]1O` [baicalin], the “IC50 for COX-1” value [6] was 0.44 μg/mL/unit of enzyme, the “IC50 for COX-2” value [1] was 0.28 μg/mL/unit and the “selectivity against COX-2” value ([1]; COX-1 vs COX-2 IC50 profile) was “twice”.

With catechin the “Oxygen Radical Absorption Capacity (ORAC)” value [7] was 20,000.
